Patent US9409952B2, “Peptide-compound cyclization method” (Chugai Seiyaku Kabushiki Kaisha, priority 2011, dated 2016)
Where two headings read alike, the source gives them in different places. Starred links: 1 amine or outer side, 2 acyl side, 3 side chain; linkers in the order of their positions; H or OH if unused. Positions of bridges follow the written chain, without caps; N, C: chain ends. Non-standard residues stand in square brackets, D forms with d. Residues, ends and D or L forms follow the SMILES beside them. ξ: configuration not given here. *: point of attachment. NMePhe(3-Cl) = CN[C@@H](Cc1cccc(Cl)c1)C(=O)O; NMeF = CN[C@@H](Cc1ccccc1)C(=O)O; NMeGABA = CN(CCCC(=O)[*:2])[*:1]; NMeI = CC[C@H](C)[C@H](NC)C(=O)O; NMeβAla = CN(CCC(=O)[*:2])[*:1]; NMeL = CN[C@@H](CC(C)C)C(=O)O; ξNMeF = CNC(Cc1ccccc1)C(=O)O; NMeV = CN[C@H](C(=O)O)C(C)C; NMeA = CN[C@@H](C)C(=O)O; Piperidide = C1CCN(*)CC1; dNMeA = CN[C@H](C)C(=O)O; β3hA = C[C@H](N)CC(=O)O; Sar = CNCC(=O)O; tBu = CC(C)(C)*

Tests used:
[1] = PAMPA (parallel artificial membrane permeability assay); assay type: in vitro ADME; details: PAMPA
Method in brief: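 Artificial membrane was 10% (w/v) egg lecithin plus 0.5% (w/v) cholesterol in dodecane on a PVDF filter. A 10 mM DMSO stock was added at 0.5% (v/v) to donor buffer (50 mM MOPSO, pH 6.5, 5.0% glycocholic acid). After 18 h at 37 °C, LC/MS or LC/UV gave donor and acceptor levels for Pe.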

[2] = Metabolic stability in human hepatic microsome; assay type: in vitro ADME; details: microsomes
[3] = membrane permeation rate (Pe), 50 mM MOPSO buffer pH 6.5 with 5.0% glycocholic acid, 37° C., 18 hours, read-out: iPAMPA Pe
[4] = pH 7.4, human hepatic microsome, NADPH(+), read-out: CL NADPH(+)

Structure (SMILES)	Papp at 18 hours, 50 µM ([1]; pH 6.5)	microsomal CLint at 1 uM ([2]; human, pH 7.4, CL NADPH(+))	Papp at 18 hours, 50 µM [1, 3]	microsomal CLint at 1 uM [2, 4]
CC[C@H](C)[C@H]1C(=O)NCC(=O)N(C)[C@@H](Cc2cccc(Cl)c2)C(=O)N[C@@H]([C@@H](C)O)C(=O)N(C)[C@@H](CC(C)C)C(=O)N[C@@H](CC(C)C)C(=O)N[C@@H](C)CC(=O)N(C)[C@H](C)C(=O)N(C)[C@@H](CC(C)C)C(=O)N[C@@H](Cc2ccccc2)C(=O)N(C)[C@@H](CC(C)C)C(=O)N[C@@H](C(C)C)C(=O)N1C [DP-762] (cyclo(F[NMeL]V[NMeI]G[NMePhe(3-Cl)]T[NMeL]L[β3hA][dNMeA][NMeL]))	13 ×10⁻⁶ cm/s	81 µL/min/mg		
C=C1CCC(=O)N(C)[C@@H](Cc2ccccc2)C(=O)N(C)CC(=O)N(C)[C@@H](CC(C)C)C(=O)N[C@@H]([C@@H](C)O)C(=O)N(C)[C@@H](C)C(=O)N(C)[C@@H](CC(C)C)C(=O)N(C)[C@@H]([C@@H](C)CC)C(=O)N[C@@H](COC(C)(C)C)C(=O)N[C@H](C(=O)N2CCCCC2)Cc2cccc1c2 [DP-831]	55 ×10⁻⁶ cm/s	683 µL/min/mg		
CC[C@H](C)[C@H]1C(=O)N[C@H](C(=O)N2CCCCC2)CC(=O)N(C)CCCC(=O)N(C)[C@@H](Cc2ccccc2)C(=O)N[C@@H]([C@@H](C)O)C(=O)N(C)CC(=O)N[C@@H](COC(C)(C)C)C(=O)N(C)[C@@H](CC(C)C)C(=O)N(C)[C@@H](CC(C)C)C(=O)N1C [DP-272] ([NMeGABA][NMeF]T[Sar]S(tBu)[NMeL][NMeL][NMeI]D-Piperidide; lactam N-9)			49 ×10⁻⁶ cm/s	82 µL/min/mg
CC(C)C[C@@H]1NC(=O)[C@H](CC(C)C)N(C)C(=O)[C@@H](C(C)C)NC(=O)C[C@@H](C(=O)N2CCCCC2)NC(=O)[C@H](CC(C)C)N(C)C(=O)[C@H](Cc2ccccc2)N(C)C(=O)[C@H](C)N(C)C(=O)[C@H]([C@@H](C)O)NC(=O)[C@H](Cc2ccccc2)N(C)C1=O [DP-264] ([dV][NMeL]L[NMeF]T[NMeA][NMeF][NMeL]D-Piperidide; lactam N-9)			37 ×10⁻⁶ cm/s	94 µL/min/mg
CC[C@H](C)[C@H]1C(=O)N(C)[C@@H](CC(C)C)C(=O)N[C@H](C(=O)N2CCCCC2)CC(=O)N(C)[C@H](C)C(=O)N(C)[C@@H](CC(C)C)C(=O)N[C@@H](CC(C)C)C(=O)N(C)[C@@H](Cc2ccccc2)C(=O)N[C@@H](COC(C)(C)C)C(=O)N(C)[C@@H](Cc2ccccc2)C(=O)N[C@@H]([C@@H](C)O)C(=O)N(C)[C@@H](C)C(=O)N1C [DP-49] ([dNMeA][NMeL]L[NMeF]S(tBu)[NMeF]T[NMeA][NMeI][NMeL]D-Piperidide; lactam N-11)	18 ×10⁻⁶ cm/s	51 µL/min/mg		
CC(C)C[C@H]1C(=O)N[C@H](C(=O)N2CCCCC2)CC(=O)N[C@H](C)C(=O)N(C)[C@@H](Cc2ccccc2)C(=O)N(C)[C@@H](CC(C)C)C(=O)N[C@@H]([C@@H](C)O)C(=O)N(C)CC(=O)N1C [DP-537] ([dA][NMeF][NMeL]T[Sar][NMeL]D-Piperidide; lactam N-7)			10 ×10⁻⁶ cm/s	78 µL/min/mg
CC(C)C[C@@H]1NC(=O)CN(C)C(=O)[C@H](C(C)C)N(C)C(=O)[C@H](C)NC(=O)[C@H]([C@@H](C)O)NC(=O)[C@H](CC(C)C)N(C)C(=O)[C@H](C)N(C)C(=O)[C@H](CC(C)C)N(C)C(=O)[C@H](Cc2ccccc2)NC(=O)CCN(C)C(=O)C[C@@H](C(=O)N2CCCCC2)NC1=O [DP-102] ([NMeβAla]F[NMeL][NMeA][NMeL]TA[NMeV][Sar]LD-Piperidide; lactam N-11)	1.8 ×10⁻⁶ cm/s	5 µL/min/mg		
CC(C)C[C@H]1C(=O)N[C@H](C(=O)N(C)[C@@H](Cc2ccccc2)C(=O)N(C)[C@@H](Cc2ccccc2)C(=O)N[C@@H](C)C(=O)N2CCCCC2)CC(=O)N(C)[C@@H](C)C(=O)N(C)[C@@H](Cc2ccccc2)C(=O)N[C@@H]([C@@H](C)O)C(=O)N(C)[C@@H](C)C(=O)N(C)[C@@H](CC(C)C)C(=O)N(C)[C@@H](CC(C)C)C(=O)N[C@@H](C(C)C)C(=O)N1C [DP-211] ([NMeA][NMeF]T[NMeA][NMeL][NMeL]V[NMeL]D[NMeF][NMeF]A-Piperidide; lactam N-9)			3.2 ×10⁻⁶ cm/s	178 µL/min/mg
CC(C)C[C@@H]1NC(=O)[C@H](CC(C)C)N(C)C(=O)[C@H](C)N(C)C(=O)[C@H](Cc2ccccc2)NC(=O)[C@H](C(C)C)N(C)C(=O)CNC(=O)[C@H]([C@@H](C)O)NC(=O)[C@H](C)N(C)C(=O)[C@H](CC(C)C)N(C)C(=O)[C@H](C)N(C)C(=O)C[C@@H](C(=O)N(C)[C@@H](Cc2ccccc2)C(=O)N[C@@H](C)C(=O)N2CCCCC2)NC1=O [DP-181] ([NMeA][NMeL][NMeA]TG[NMeV]F[NMeA][NMeL]LD[NMeF]A-Piperidide; lactam N-11)			18 ×10⁻⁶ cm/s	13 µL/min/mg
CC[C@H](C)[C@@H]1NC(=O)[C@H](C)N(C)C(=O)[C@H]([C@@H](C)O)NC(=O)[C@H](Cc2ccccc2)N(C)C(=O)[C@H](CC(C)C)N(C)C(=O)CCCN(C)C(=O)C[C@@H](C(=O)N(C)[C@@H](Cc2ccccc2)C(=O)N[C@@H](C)C(=O)N2CCCCC2)NC(=O)[C@H](C(C)C)N(C)C(=O)[C@H](CC(C)C)N(C)C1=O [DP-384] ([NMeGABA][NMeL][NMeF]T[NMeA]I[NMeL][NMeV]D[NMeF]A-Piperidide; lactam N-9)			26 ×10⁻⁶ cm/s	214 µL/min/mg
CC(C)C[C@H]1C(=O)N(C)[C@@H](C)C(=O)N[C@@H](C)C(=O)N[C@H](C(=O)N2CCCCC2)CC(=O)N(C)CCC(=O)N(C)[C@@H](Cc2ccccc2)C(=O)N(C)[C@@H](C)C(=O)N[C@@H]([C@@H](C)O)C(=O)N(C)[C@@H](C)C(=O)N[C@@H](Cc2ccccc2)C(=O)N(C)[C@@H](C(C)C)C(=O)N1C [DP-326] ([NMeβAla][NMeF][NMeA]T[NMeA]F[NMeV][NMeL][NMeA]AD-Piperidide; lactam N-11)			2.5 ×10⁻⁶ cm/s	15 µL/min/mg
CC[C@H](C)[C@@H]1NC(=O)[C@H](CC(C)C)NC(=O)CCN(C)C(=O)C[C@@H](C(=O)N2CCCCC2)NC(=O)[C@H](CC(C)C)NC(=O)[C@H](Cc2ccccc2)NC(=O)[C@H]([C@@H](C)O)NC(=O)[C@H](CC(C)C)NC(=O)[C@H](C(C)C)NC(=O)[C@H](CC(C)C)NC(=O)CN(C)C1=O [DP-411] ([NMeβAla]LI[Sar]LVLTFLD-Piperidide; lactam N-11)			8.4 ×10⁻⁶ cm/s	114 µL/min/mg
CC[C@H](C)[C@@H]1NC(=O)[C@H](C)N(C)C(=O)[C@H](C)N(C)C(=O)[C@H]([C@@H](C)O)NC(=O)CN(C)C(=O)[C@H](C(C)C)N(C)C(=O)[C@H](CC(C)C)N(C)C(=O)[C@H](Cc2ccccc2)NC(=O)[C@@H](C)N(C)C(=O)C[C@@H](C(=O)N(C)[C@@H](Cc2ccccc2)C(=O)N(C)[C@@H](Cc2ccccc2)C(=O)N[C@@H](C)C(=O)N2CCCCC2)NC1=O [DP-506] ([dNMeA]F[NMeL][NMeV][Sar]T[NMeA][NMeA]ID[NMeF][NMeF]A-Piperidide; lactam N-10)			20 ×10⁻⁶ cm/s	14 µL/min/mg
CC[C@H](C)[C@H]1C(=O)N[C@@H]([C@@H](C)O)C(=O)N(C)[C@@H](C)C(=O)N(C)[C@@H](CC(C)C)C(=O)N[C@H](C(=O)N2CCCCC2)CC(=O)N(C)CCC(=O)N(C)[C@@H](CC(C)C)C(=O)N[C@@H](CC(C)C)C(=O)N(C)[C@@H](Cc2ccccc2)C(=O)N[C@@H](COC(C)(C)C)C(=O)N(C)C(Cc2ccccc2)C(=O)N1C (stereo partly drawn) [DP-103] ([NMeβAla][NMeL]L[NMeF]S(tBu)[ξNMeF][NMeI]T[NMeA][NMeL]D-Piperidide; lactam N-11)	19 ×10⁻⁶ cm/s	73 µL/min/mg		
CC(C)C[C@H]1C(=O)NCC(=O)N[C@@H](C)CC(=O)N(C)CCC(=O)N[C@@H]([C@@H](C)O)C(=O)N(C)[C@@H](C)C(=O)N[C@@H](COC(C)(C)C)C(=O)N(C)[C@@H](Cc2ccccc2)C(=O)N1C [DP-794] (cyclo(G[β3hA][NMeβAla]T[NMeA]S(tBu)[NMeF][NMeL]))			3.7 ×10⁻⁶ cm/s	43 µL/min/mg
CC(C)C[C@H]1C(=O)N(C)[C@@H](Cc2ccccc2)C(=O)N(C)[C@@H](Cc2ccccc2)C(=O)NCC(=O)N(C)[C@@H](C)C(=O)N[C@@H]([C@@H](C)O)C(=O)N[C@H](C(=O)N(C)[C@@H](Cc2ccccc2)C(=O)N(C)[C@@H](Cc2ccccc2)C(=O)N[C@@H](C)C(=O)N2CCCCC2)CC(=O)N(C)[C@@H](C)C(=O)N[C@@H](C(C)C)C(=O)N1C [DP-309] ([NMeA]V[NMeL][NMeF][NMeF]G[NMeA]TD[NMeF][NMeF]A-Piperidide; lactam N-9)	26 ×10⁻⁶ cm/s	212 µL/min/mg		
CC(C)C[C@H]1C(=O)N[C@@H](COC(C)(C)C)C(=O)N(C)CC(=O)N[C@@H]([C@@H](C)O)C(=O)N[C@H](C(=O)N2CCCCC2)CC(=O)N[C@@H](C(C)C)C(=O)N(C)[C@@H](Cc2ccccc2)C(=O)N1C [DP-724] (V[NMeF][NMeL]S(tBu)[Sar]TD-Piperidide; lactam N-7)			20 ×10⁻⁶ cm/s	160 µL/min/mg
CC(C)C[C@H]1C(=O)N[C@@H]([C@@H](C)O)C(=O)N(C)[C@@H](Cc2ccccc2)C(=O)N(C)[C@@H](CC(C)C)C(=O)NCC(=O)N(C)[C@@H](C(C)C)C(=O)N[C@@H](Cc2ccccc2)C(=O)N[C@H](C(=O)N(C)[C@@H](Cc2ccccc2)C(=O)N[C@@H](C)C(=O)N2CCCCC2)CC(=O)N(C)CC(=O)N[C@@H](C(C)C)C(=O)N1C [DP-304] ([Sar]V[NMeL]T[NMeF][NMeL]G[NMeV]FD[NMeF]A-Piperidide; lactam N-10)	35 ×10⁻⁶ cm/s	212 µL/min/mg		
